Assay results reported in ChEMBL document CHEMBL3085760, “Novel polyamine analogues: from substrates towards potential inhibitors of monoamine oxidases” (Eur J Med Chem, 2013).
One block for each molecule: values may come before it.

Legend:
[1] = target: T1, Amine oxidase [flavin-containing] B (Homo sapiens, UniProt P27338); experiment: Reversible inhibition of recombinant human MAO-B expressed in baculovirus infected BT1 cells using benzylamine as substrate at 200 uM preincubated for 30 mins by Lineweaver-Burk plot analysis
T1 sequence (P27338 whole entry): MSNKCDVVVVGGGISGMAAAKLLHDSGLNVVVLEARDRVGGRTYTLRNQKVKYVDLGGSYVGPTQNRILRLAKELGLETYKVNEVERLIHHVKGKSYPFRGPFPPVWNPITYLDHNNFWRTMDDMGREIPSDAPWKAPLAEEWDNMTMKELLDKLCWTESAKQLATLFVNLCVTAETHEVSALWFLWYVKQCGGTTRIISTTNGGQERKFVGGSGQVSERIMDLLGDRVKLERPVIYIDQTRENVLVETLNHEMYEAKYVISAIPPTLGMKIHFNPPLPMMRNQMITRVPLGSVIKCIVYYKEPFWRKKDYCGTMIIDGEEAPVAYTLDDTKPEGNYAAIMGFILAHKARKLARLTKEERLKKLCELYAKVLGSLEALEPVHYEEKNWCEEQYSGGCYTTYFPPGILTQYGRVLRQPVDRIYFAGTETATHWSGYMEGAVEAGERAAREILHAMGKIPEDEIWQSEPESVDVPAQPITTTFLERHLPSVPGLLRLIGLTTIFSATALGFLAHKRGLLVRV

[2] = target: T1, Amine oxidase [flavin-containing] B; experiment: Mixed type inhibition of recombinant human MAO-B expressed in baculovirus infected BT1 cells using benzylamine as substrate at 200 uM preincubated for 30 mins by Lineweaver-Burk plot analysis
[3] = target: T1, Amine oxidase [flavin-containing] B; experiment: Ratio of relative Vmax to Km for recombinant human MAO-B expressed in baculovirus infected BT1 cells assessed as hydrogen peroxide generation rate using benzylamine as substrate at 200 uM preincubated for 30 mins by Amplex Red assay
[4] = target: T2, Amine oxidase [flavin-containing] A (Homo sapiens, UniProt P21397); experiment: Activity at recombinant human MAO-A expressed in baculovirus infected BT1 cells assessed as hydrogen peroxide generation rate per min/mg using p-tyramine as substrate at 200 uM preincubated for 30 mins by Amplex Red assay relative to control
T2 sequence (P21397 whole entry): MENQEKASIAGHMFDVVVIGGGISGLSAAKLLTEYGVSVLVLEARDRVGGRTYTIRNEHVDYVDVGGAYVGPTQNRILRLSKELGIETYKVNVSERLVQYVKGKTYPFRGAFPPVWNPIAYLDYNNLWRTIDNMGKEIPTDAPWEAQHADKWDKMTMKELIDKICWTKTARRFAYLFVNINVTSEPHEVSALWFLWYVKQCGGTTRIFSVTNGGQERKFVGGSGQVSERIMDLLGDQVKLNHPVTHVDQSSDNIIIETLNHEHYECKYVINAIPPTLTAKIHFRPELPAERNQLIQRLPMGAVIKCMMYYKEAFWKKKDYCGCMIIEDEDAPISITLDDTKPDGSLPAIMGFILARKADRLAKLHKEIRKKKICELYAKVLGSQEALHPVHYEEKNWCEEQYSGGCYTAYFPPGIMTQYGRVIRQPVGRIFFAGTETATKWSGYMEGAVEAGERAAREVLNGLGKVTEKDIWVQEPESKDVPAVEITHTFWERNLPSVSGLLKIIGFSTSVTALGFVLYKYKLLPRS

[5] = target: T1, Amine oxidase [flavin-containing] B; experiment: Activity at recombinant human MAO-B expressed in baculovirus infected BT1 cells assessed as hydrogen peroxide generation rate per min/mg using benzylamine as substrate at 200 uM preincubated for 30 mins by Amplex Red assay relative to control
[6] = target: T2, Amine oxidase [flavin-containing] A; experiment: Ratio of relative Vmax to Km for recombinant human MAO-A expressed in baculovirus infected BT1 cells assessed as hydrogen peroxide generation rate using p-tyramine as substrate at 200 uM preincubated for 30 mins by Amplex Red assay
[7] = target: T2, Amine oxidase [flavin-containing] A; experiment: Reversible inhibition of recombinant human MAO-A expressed in baculovirus infected BT1 cells using p-tyramine as substrate by Lineweaver-Burk plot analysis
[8] = target: T2, Amine oxidase [flavin-containing] A; experiment: Mixed type inhibition of recombinant human MAO-A expressed in baculovirus infected BT1 cells using p-tyramine as substrate by Lineweaver-Burk plot analysis
[9] = target: T1, Amine oxidase [flavin-containing] B; experiment: Ratio of relative Vmax to Km for recombinant human MAO-B expressed in baculovirus infected BT1 cells assessed as hydrogen peroxide generation rate using benzylamine as substrate at 500 uM preincubated for 30 mins by Amplex Red assay
[10] = target: T2, Amine oxidase [flavin-containing] A; experiment: Ratio of relative Vmax to Km for recombinant human MAO-A expressed in baculovirus infected BT1 cells assessed as hydrogen peroxide generation rate using p-tyramine as substrate at 500 uM preincubated for 30 mins by Amplex Red assay
[11] = target: T2, Amine oxidase [flavin-containing] A; experiment: Activity at recombinant human MAO-A expressed in baculovirus infected BT1 cells assessed as hydrogen peroxide generation rate using p-tyramine as substrate at 500 uM preincubated for 30 mins by Amplex Red assay relative to control
[12] = target: T2, Amine oxidase [flavin-containing] A; experiment: Activity at recombinant human MAO-A expressed in baculovirus infected BT1 cells assessed as hydrogen peroxide generation rate using p-tyramine as substrate at 500 uM preincubated for 30 mins by Amplex Red assay
[13] = target: T1, Amine oxidase [flavin-containing] B; experiment: Activity at recombinant human MAO-B expressed in baculovirus infected BT1 cells assessed as hydrogen peroxide generation rate using benzylamine as substrate at 500 uM preincubated for 30 mins by Amplex Red assay relative to control
[14] = target: T1, Amine oxidase [flavin-containing] B; experiment: Activity at recombinant human MAO-B expressed in baculovirus infected BT1 cells assessed as hydrogen peroxide generation rate using benzylamine as substrate at 500 uM preincubated for 30 mins by Amplex Red assay
[15] = target: T2, Amine oxidase [flavin-containing] A; experiment: Ratio of relative Vmax to Km for recombinant human MAO-A expressed in baculovirus infected BT1 cells assessed as hydrogen peroxide generation rate preincubated for 30 mins by Amplex Red assay; conditions: 0.5 h
[16] = target: T2, Amine oxidase [flavin-containing] A; experiment: Activity at recombinant human MAO-A expressed in baculovirus infected BT1 cells assessed as hydrogen peroxide generation rate preincubated for 30 mins by Amplex Red assay relative to control
[17] = target: T1, Amine oxidase [flavin-containing] B; experiment: Ratio of relative Vmax to Km for recombinant human MAO-B expressed in baculovirus infected BT1 cells assessed as hydrogen peroxide generation rate preincubated for 30 mins by Amplex Red assay; conditions: 0.5 h
[18] = target: T1, Amine oxidase [flavin-containing] B; experiment: Activity at recombinant human MAO-B expressed in baculovirus infected BT1 cells assessed as hydrogen peroxide generation rate preincubated for 30 mins by Amplex Red assay relative to control
[19] = target: T2, Amine oxidase [flavin-containing] A; experiment: Activity at recombinant human MAO-A expressed in baculovirus infected BT1 cells assessed as hydrogen peroxide generation rate preincubated for 30 mins by Amplex Red assay; conditions: 0.5 h
[20] = Cytotoxicity against human SH-SY5Y cells after 24 hrs by Annexin V-PE-based flow cytometry; assay type: cell-based; conditions: for IC50: Homo sapiens, SH-SY5Y; for Activity: human, sh-sy5y
[21] = target: T2, Amine oxidase [flavin-containing] A; experiment: Inhibition of recombinant human MAO-A expressed in baculovirus infected BT1 cells assessed as residual activity using p-tyramine as substrate at 50 uM at 37 degC
[22] = target: T1, Amine oxidase [flavin-containing] B; experiment: Ratio of residual Vmax to Km for recombinant human MAO-B expressed in baculovirus infected BT1 cells assessed as residual activity using benzylamine as substrate at 20 uM preincubated for 30 mins by Amplex Red assay
[23] = target: T2, Amine oxidase [flavin-containing] A; experiment: Inhibition of recombinant human MAO-A expressed in baculovirus infected BT1 cells assessed as residual activity using p-tyramine as substrate at 100 uM preincubated for 24 hrs measured after 10 mins; conditions: read-out: Activity
[24] = target: T2, Amine oxidase [flavin-containing] A; experiment: Inhibition of recombinant human MAO-A expressed in baculovirus infected BT1 cells using p-tyramine as substrate at 20 to 240 uM by Lineweaver-Burk plot analysis
[25] = target: T2, Amine oxidase [flavin-containing] A; experiment: Competitive inhibition of MAOA in human SH-SY5Y cells using p-tyramine as substrate preincubated for 5 mins by Lineweaver-Burk plot analysis; assay type: cell-based
[26] = target: T1, Amine oxidase [flavin-containing] B; experiment: biochemical; assay type: cell-based
[27] = target: T2, Amine oxidase [flavin-containing] A; experiment: Inhibition of recombinant human MAO-A expressed in baculovirus infected BT1 cells using p-tyramine as substrate after 20 to 80 mins by Lineweaver-Burk plot analysis
[28] = target: T2, Amine oxidase [flavin-containing] A; experiment: Inhibition of recombinant human MAO-A expressed in baculovirus infected BT1 cells assessed as residual activity using p-tyramine as substrate at 100 uM after 10 mins; conditions: read-out: Activity
[29] = target: T2, Amine oxidase [flavin-containing] A; experiment: Ratio of residual Vmax to Km for recombinant human MAO-A expressed in baculovirus infected BT1 cells assessed as residual activity using benzylamine as substrate at 20 uM preincubated for 30 mins by Amplex Red assay
[30] = target: T2, Amine oxidase [flavin-containing] A; experiment: Irreversible inhibition of recombinant human MAO-A expressed in baculovirus infected BT1 cells using p-tyramine as substrate by Lineweaver-Burk plot analysis
[31] = target: T2, Amine oxidase [flavin-containing] A; experiment: Inhibition of recombinant human MAO-A expressed in baculovirus infected BT1 cells assessed as residual activity using p-tyramine as substrate at 50 uM at 25 degC
[32] = target: T1, Amine oxidase [flavin-containing] B; experiment: Activity at recombinant human MAO-B expressed in baculovirus infected BT1 cells assessed as hydrogen peroxide generation rate preincubated for 30 mins by Amplex Red assay

SMILES: NCCCCCCCCCCCCNCc1cccs1
- fold change (FC) [15]: 0.29
- fold change (FC) [16]: 0.1
- fold change (FC) [17]: 12
- fold change (FC) [18]: 0.53

SMILES: NCCCOCCCCOCCCNCc1cccs1
- fold change (FC) [15]: 0.06
- fold change (FC) [17]: 0.21
- Km [19]: > 1200 µM
- fold change (FC) [18]: 0.19

SMILES: CN(CCCCCCCCCCCCN=C=S)Cc1ccccc1
- kinact [21]: 0.00075 s⁻¹
- fold change (FC) [22]: 0.2
- activity at 100 µM [23]: 100%
- inhibition (INH) [24]: Dose-dependent effect
- Ki [25]: 4.9 µM
- Ki [26]: 9 µM
- inhibition (INH) [27]: Dose-dependent effect
- IC50 [20]: 180 µM
- Activity [20]: Dose-dependent effect
- activity at 100 µM [28]: 64%
- fold change (FC) [29]: 0.22
- Ki [30]: 5 µM
- kinact [31]: 0.0002 s⁻¹

SMILES: CN(CCCCCCCCCCCCN)Cc1ccccc1
- fold change (FC) [15]: 0.6
- fold change (FC) [16]: 0.03
- fold change (FC) [17]: 17.5
- fold change (FC) [18]: 0.24

SMILES: c1ccc(CNCCCCCCCCCCCCNCc2ccccc2)cc1
- Ki [1]: 1050 µM
- Ki [2]: 129 µM
- fold change (FC) [3]: 0.37
- fold change (FC) [4]: 0.52
- fold change (FC) [5]: 0.62
- fold change (FC) [6]: 0.29
- Ki [7]: 186 µM
- Ki [8]: 55 µM

SMILES: C=CCN=C=S [ALLYL ISOTHIOCYANATE]
- fold change (FC) [22]: 0.98
- fold change (FC) [29]: 1

SMILES: C[S+]([O-])CCCCN=C=S (stereo not drawn) [SULFORAPHANE]
- fold change (FC) [22]: 1.01
- IC50 [20]: 20 µM
- fold change (FC) [29]: 0.78

Further lines, with some results ahead:

- Ki [1]: 785 µM
- Ki [2]: 291 µM
- fold change (FC) [3]: 0.66
- fold change (FC) [4]: 0.48
- fold change (FC) [5]: 0.97
- fold change (FC) [6]: 0.38
- Ki [7]: 188 µM
- Ki [8]: 170 µM
SMILES: NCCCNCCCCNCCCNCc1ccccc1

- fold change (FC) [9]: < 0.01
- fold change (FC) [10]: < 0.01
- fold change (FC) [11]: < 0.01
- Km [12]: < 0.01 µM
- fold change (FC) [3]: 0.75
- fold change (FC) [13]: < 0.01
- fold change (FC) [4]: 0.96
- fold change (FC) [5]: 0.71
- fold change (FC) [6]: 0.69
- Km [14]: < 0.01 µM
SMILES: NCCCCCCCCNCCCNCc1cccs1

- fold change (FC) [15]: 0.4
- fold change (FC) [16]: 0.08
- fold change (FC) [17]: 18.6
- fold change (FC) [18]: 1
SMILES: NCCCCCCCCCCCCNCc1ccccc1
- IC50 [20]: 327 µM
- Activity [20]: Dose-dependent effect

- fold change (FC) [3]: 0.91
- fold change (FC) [4]: 0.52
- fold change (FC) [5]: 0.81
- fold change (FC) [6]: 0.62
- Activity [19]: Not Active
- Activity [32]: Not Active
SMILES: NCCCNCCCCNCCCNCc1ccc2ccccc2c1

- fold change (FC) [3]: 0.72
- fold change (FC) [4]: 0.52
- fold change (FC) [5]: 0.93
- fold change (FC) [6]: 0.72
- Activity [19]: Not Active
- Activity [32]: Not Active
SMILES: NCCCNCCCCNCCCNCc1cccnc1

- Ki [1]: 414 µM
- Ki [2]: 23 µM
- fold change (FC) [3]: 0.05
- fold change (FC) [4]: 0.52
- fold change (FC) [5]: 0.63
- fold change (FC) [6]: 0.57
- Activity [19]: Not Active
- Ki [7]: 997 µM
- Ki [8]: 226 µM
- Activity [32]: Not Active
SMILES: NCCCNCCCCNCCCNCc1cccs1

- fold change (FC) [3]: 0.76
- fold change (FC) [4]: 0.77
- fold change (FC) [5]: 0.98
- fold change (FC) [6]: 0.86
SMILES: NCCCNCCCCNCCCN [SPERMINE]
